From patent EP0705258B1, “AZOLYL-CYCLIC AMINE DERIVATIVES WITH IMMUNOMODULATORY ACTIVITY” (Knoll AG, priority 1993, dated 1995)
Structures can show the parent of a compound that is named as a salt.

Key:
[1] = system: Zymosan Stimulated Macrophages; assay: Inhibition of Arachidonic Acid Release from Zymosan Stimulated Macrophages (Test D); format: cell-based, MF1 mice; settings: Mus musculus, Macrophage, tested at 100, 50, 20, 10, 5 and 1 µM
Protocol: Female MF1 mice (weighing 20 to 25 g) were killed using a rising concentration of CO2. The mice were laid on their backs and the abdomens wiped with 70% alcohol. The skin was pulled back, exposing the peritoneal wall. Medium A (5 ml) (see below) was injected into the peritoneal cavity of each mouse followed by approximately 1 ml of air using a 20 ml syringe and a 21G x 40 mm needle in order to form a suspension of macrophage cells. The medium and cells were then removed using a 19G x 40 mm needle. The resulting suspension was returned to a sterile beaker kept on ice. The extracts from all the mice were pooled and this pooled cell suspension was counted using a Coulter counter and adjusted to a final cell count of 1 - 1.3 x 10^6 cells/ml prior to labelling with [^3H]-arachidonic acid. Typically five mice provided sufficient cells for each multiwell plate. Sufficient [^3H]arachidonic acid in ethanol to give a final concentration of 1.6 µCi/ml (equivalent to 40 µCi/plate) was blown to dryness under nitrogen. The arachidonic acid was then resuspended in 1 or 2 ml of the cell suspension which was then mixed with the remainder of the cell suspension in a centrifuge bottle. The labelled cell suspension was then plated out into sterile plastic 96 flat-bottomed well plates (250 µl per well) and incubated overnight at 37°C in a moist atmosphere of 5% CO2, 95% air. The following day, non-adherent cells were removed by washing 3 times with sterile phosphate buffered saline (PBS). The adherent peritoneal macrophages were then cultured for a further 24 hours in the presence or absence of drugs, in medium B (see below) at 37° in a 5% CO2 atmosphere in order to measure the effects of drugs on the spontaneous release of arachidonic acid in the absence of stimulus. After this incubation, supernatants were removed to give media 1 and stored in sealed multi-well plates at 4°C prior to scintillation counting. Drugs which potentiated spontaneous release of arachidonic acid (125% of controls) were deemed to be toxic at the concentration at which this phenomenon occurred. The supernatants were replaced by fresh medium C containing fresh drug and a stimulus. Three drugs were tested at six concentrations (100, 50, 20, 10, 5 and 1 µM) in replicates of four on each plate. The other wells contained controls consisting of a positive control (e.g. dexamethasone), medium (B) only and medium C only. Incubation was then continued for a further 5 hours, whereupon the supernatants were collected to give media 2 and the adherent cells washed with PBS. The cells were then lysed with 100 µl of 0.1% TRITON® X100 in a 0.1% solution of bovine serum albumin in 0.9% saline and mechanically disrupted to give cell lysates. These supernatants (media 2) and cell lysates (Cells) were also stored in sealed multi-well plates at 4°C prior to scintillation counting. 200 µl aliquots of media, or 100 µl aliquots of cells were counted using 2 ml of OPTIPHASE "HIGH SAFE" (Trademark of LKB) as scintillant. […] The value for the arachidonic acid release in the absence of stimulus (spontaneous, cpm of media 2) from cells which had been exposed to neither stimulus nor drug was subtracted from all equivalent values (cpm media 2, stimulated with or without drug) to give the net stimulated release. The percentage inhibition of arachidonic acid release caused by a drug may then be calculated using the following equation. % Inhibition = 100 -(net stimulated release in presence of drug x 100)/(net stimulated release in absence of drug) [formula] […] The zymosan stimulant was prepared as follows:- zymosan (200mg) (supplied by Sigma) was added to PBS (20ml). The mixture was boiled for 30 minutes and the volume restored to 20ml with water. The zymosan was harvested by centrifugation at 500Xg for 5 minutes, washed twice by resuspension in PBS (10ml) and centrifugation. After the final separation, the zymosan was resuspended in 20ml PBS and stored as lml aliquots at -20°C. […]

[2] = system: tumour necrosis factor-α (TNF-α); assay: Mouse Tumour Necrosis Factor Test (Test B), mouse endotoxin shock model, serum TNF-α by ELISA; format: in vivo, BALB/c mice; settings: Mus musculus; minimum effective oral dose giving significant reduction in serum TNF-α of ≥35%; dosed 2 h before LPS i.p.; ≤ = active at dose given but not tested at lower doses; read-out: MTNF:MED
From the text: Preferred compounds of the present invention are active in an in-vivo test which determines the ability of the compounds to inhibit the release of tumour necrosis factor-α (TNF-α) in a mouse endotoxin shock model (Test B). This model is similar to that described by Zuckerman and Bendele (1989), Infection and Immunity 57 (10): p3009-3013.
Each compound of formula I was combined with a carrier of a solution of 1.5% v/v sorbitan esters under the trade name Tween 80 and 0.25% v/v cellosize in sterile water (100 µl) and was administered orally to a group of four BALB/c mice. The concentration of compound was such as to provide dosages selected from 100, 30, 10, 3, 1, 0.1 and 0.03 mg/kg. Two hours after such oral administration, lipopolysaccharide (LPS) (E. coli 0127:B8) (100 µg) in sterile water (0.2 ml) was administered intraperitoneally to the test mice.
A control group of eight BALB/c mice was treated in a similar manner as the test group except that no test compound was included with the carrier.
One hour after LPS administration the mice were killed and blood was collected by cardiac puncture. The blood was incubated at 20°C for 2 hours and the serum was separated from the clotted blood following centrifugation. Serum tumour necrosis factor-α (TNF-α) levels were assayed by an enzyme-linked immunosorbent assay (ELISA) and the concentration of TNF-α in each of the drug-treated groups was compared with the control group by one-way analysis of variance followed by a multiple t-test.
The ELISA was carried out by coating a 96-well vinyl assay plate (Costar) overnight at 4°C with 50 µl per well of 2 µg/ml hamster anti-mouse TNF monoclonal antibody in 0.1M sodium hydrogen carbonate buffer at pH 8.2. After washing the plate with phosphate buffered saline (PBS) containing 0.05% v/v sorbitan esters under the trade name Tween 20 (wash buffer), a blocking/dilution buffer (10% sheep serum in PBS containing 0.1% v/v sorbitan esters under the trade name Tween 20 (200 µl)) was aliquoted to each well and incubated at 37°C for 0.5 hours. After aspirating the blocking buffer, the serum samples and pure TNF (as a standard) diluted in blocking/dilution buffer, were added to the wells and incubated at 37°C for 2 hours. After washing with the wash buffer, a polyclonal rabbit anti-mouse TNF-α antibody in blocking/dilution buffer (100 µl of a 1 in 10,000 dilution) was added and incubated for a further 1.5 hours at 37°C. After further washes, anti-rabbit IgG peroxidase conjugate (100 µl of a 1 in 4000 dilution) was added and incubated at 37°C for 0.5 hours. After further washing, the substrate solution (100 µl per well of 0.1 mg/ml 3,3', 5,5'-tetramethylbenzidine dihydrochloride in 0.1M phosphate citrate buffer, pH 5.0, to which 2 µl of 30% hydrogen peroxide per 10 ml was added just before use) was added and the colour allowed to develop. The reaction was stopped by the addition of 1M sulphuric acid (25 µl) and the optical density read in a multichannel spectrophotometer at 450 nm. The mean TNF-α concentration was determined by comparison with the standard curve and the mean TNF-α concentration for each group compared with that produced by the control group. Drug treatments which cause a statistically significant reduction in TNF-α concentration of ≥35% at a single dose at 100 mg/kg or less were considered active.

[3] = system: lymphocyte proliferation (BALB/c responder and mitomycin C treated C57BL/6 stimulator spleen cells); assay: Mixed Lymphocyte Reaction (Test A), one-way MLR, tritiated thymidine incorporation; format: cell-based, mice; settings: Mus musculus; concentration causing 50% inhibition of lymphocyte proliferation, by linear interpolation; ≤ = active at this concentration but not tested at lower doses
Protocol: A mixed lymphocyte reaction (MLR) occurs when lymphocytes from two genetically dissimilar individuals, or inbred strains of mice are cultured together. An MLR results in the activation and proliferation of lymphocytes, which is measured by the incorporation of radiolabelled thymidine into the cellular DNA synthesised during cell division. A 'one-way' MLR is used to determine the immunosuppressive activity of test compounds in vitro. In this reaction one population of spleen cells serves as the stimulator cells and is treated with mitomycin C to prevent cell division. Spleen cells from a second allogeneic population (responder cells) are untreated and when mixed with the stimulator cells are able to undergo division which is measured. The degree of proliferation is measured in the presence and absence of test compound to assess the immunosuppressive activity of the compound.
The techniques for carrying out lymphocyte proliferation assays including MLRs are well known, eg Bradley, pages 156-166, in Mishell and Shiigi, Eds. Selected Methods in Cellular Immunology (Freeman, San Francisco, 1980); and Battisto et al, methods in Enzymology 1987; 150: 83-91. Various slight modifications of these techniques are in use and that used herein is described in Gibb, Webber and Bowen, J Immunological Methods 1985; 81: 107-113.
Cell suspensions obtained from the spleens of female BALB/c and C57BL/6 strain mice of between 6 and 9 weeks of age were used as sources of responder and stimulator cells respectively. The mice were killed using a rising concentration of CO2 and the spleens removed aseptically and teased using a scalpel and forceps to produce a single cell suspension in Hanks balanced salt solution (HBSS). The suspensions were filtered through cell strainers (Falcon), sedimented by centrifugation and resuspended in Tris-buffered ammonium chloride pH 7.2 (medium D) to lyse the erythrocytes. The cells were sedimented again and washed twice in HBSS before resuspending in complete RPMI 1640 tissue culture medium (medium E). The C57BL/6 cells were resuspended to 9 mls per spleen and a solution of mitomycin C at 400 µg/ml in medium E added to give a final concentration of 40 µg/ml. After incubation of the C57BL/6 cells at 37°C for 30 minutes in an atmosphere of 5% CO2 and 95% air, the cells were sedimented and washed 3 times in medium E. Both cell suspensions were diluted in medium E to 5 x 10^6 cells/ml. 100µl of each of the responder and stimulator cell suspensions were aliquoted into the wells of 96 well flat bottom microtitre plates containing 50 µl of test compound at an appropriate dilution (initially 50 µM diluted in medium E from a stock solution at 100 mM in dimethyl sulphoxide) giving a final test compound concentration of 10 µM (final dilution). Compounds active at this concentration were tested at further final dilution of 1 µM, 0.1 µM and 0.01 µM and 0.001 µM to determine the concentration of test compound which causes 50% inhibition of the immune response (IC50). After four days of culture at 37°C in a humidified atmosphere of 5% CO2 and 95% air, 1 µCi of tritiated thymidine in 20 µl of medium E was added to each well and the plates incubated for a further 24 hours. Cells were then harvested onto Inotech G7 glass fibre filter mats using an Inotech cell harvester. The filters were transferred to vials to which 2 ml of Packard Emulsifier-Safe scintillation fluid was added and the radioactivity from the incorporated thymidine was counted in a Packard liquid scintillation counter. The counts per minute (CPM) reflect the degree of lymphocyte proliferation. The data were analysed to determine the percentage inhibition of lymphocyte proliferation by the test compound. […]

Compound | IC50 [1] [µM] | minimal effective dose [2] [mg/kg] | IC50 [3] [µM]
O=C(CCCN1CCC(CCn2ccnc2)CC1)c1ccccc1 [Example 88, 4-[2-(Imidazol-1-yl)ethyl]-1-(4-oxo-4-phenylbutyl)piperidine] | 52 | ≤ 30 | 
c1ccc(CCCC2CCN(CCn3ccnc3)CC2)cc1 [Example 96, 1-[2-(imidazol-1-yl)ethyl]-4-(3-phenylpropyl)piperidine, dihydrochloride monohydrate] | 34 |  | 0.01
c1ccc(CCCN2CCCC(CCn3ccnc3)C2)cc1 (stereo not drawn) [Example 99, 3-[2-(Imidazol-l-yl)ethyl]-1-(3-phenylpropyl)piperidine] | 58 | 100 | 
c1ccc(CCCN2CCCCC2CCn2ccnc2)cc1 (stereo not drawn) [Example 100, 2-[2-(Imidazol-1-yl)ethyl]-1-(3-phenylpropyl)piperidine] | 27 | 100 | 
c1ccc(CCCN2CCCC(Cn3ccnc3)C2)cc1 (stereo not drawn) [Example 101, 3-Imidazol-1-ylmethyl-1-(3-phenylpropyl)piperidine] | 18 | 100 | 
CC(C)c1nccn1CCC1CCN(CCCc2ccccc2)CC1 [Example 106, 4-[2-(2-Isopropylimidazol-1-yl)ethyl]-1-(3-phenylpropyl)piperidine] | 22 |  | 0.5
CCc1nccn1CCC1CCN(CCCc2ccccc2)CC1 [Example 107, 4-[2-(2-Ethylimidazol-1-yl)ethyl]-1-(3-phenylpropyl)piperidine] | 22 |  | ≤ 0.01
CCCc1nccn1CCC1CCN(CCCc2ccccc2)CC1 [Example 110, 1-(3-Phenylpropyl)-4-[2-(2-propylimidazol-1-yl)ethyl]piperidine] | 20 |  | 0.2
c1ccc(CCCN2CCC(CCn3nccn3)CC2)cc1 [Example 120, 1-(3-Phenylpropyl)-4-[2-(2H-1,2,3-triazol-2-yl)ethyl]piperidine] | 100 |  | 4.2
c1ccc(CCCN2CCC(CCn3ncnn3)CC2)cc1 [Example 121, 1-(3-Phenylpropyl)-4-[2-(2H-tetrazol-2-yl)ethyl]piperidine] |  | 100 | ≤ 1
c1ccc2c(c1)CCC(CN1CCC(CCn3ccnc3)CC1)C2 (stereo not drawn) [Example 125, 4-[2-(Imidazol-1-yl)ethyl]-1-(1,2,3,4-tetrahydronaphth-2-ylmethyl)piperidine] |  | 30 | 2.2
CC(CCN1CCC(CCn2ccnc2)CC1)c1ccccc1 (stereo not drawn) [Example 126, 4-[2-(Imidazol-1-yl)ethyl]-1-(3-phenylbutyl)piperidine] |  | ≤ 100 | 3.7
